Reference: US10457709B2, “Antimicrobial peptides, their variants and uses” (priority 2015, dated 2019)
Like-named read-outs stand apart in the source and are kept apart here. Square brackets hold non-standard residues; d marks the D form. Peptide text beside a SMILES is read from it.

Key:
[1] = tested on: C. quillermondiae clinical strains; assay: MIC, clinical yeast strains; type: cell-based, Candida quillermondiae; parameters: unit: μg/ml; details: C. quillermondiae clinical yeast strain 1
Outline: (§1)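 Antifungal testing uses potato dextrose broth; antibacterial testing uses Mueller Hinton broth. Cell density is set to 5.0×10^5 cfu/ml and incubation runs 20–24 h at 37° C. MIC is the lowest concentration, within 0.125–128 μg/ml, at which no growth is visible.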

[2] = tested on: Escherichia coli clinical strains; type: cell-based; details: microdilution, Muller Hinton broth-cation adjusted, 0.02% BSA, 0.2% acetic acid
Outline: as §1

[3] = tested on: Pseudomonas aeruginosa clinical strains; type: cell-based; details: microdilution, Muller Hinton broth-cation adjusted, 0.02% BSA, 0.2% acetic acid
Outline: as §1

[4] = tested on: Klebsiella pneumoniae clinical strains; type: cell-based; details: microdilution, Muller Hinton broth-cation adjusted, 0.02% BSA, 0.2% acetic acid
Outline: as §1

[5] = tested on: C. parapsilosis clinical strains; assay: MIC, clinical yeast strains; type: cell-based, Candida parapsilosis; parameters: unit: µg/ml
Outline: as §1

[6] = tested on: Enterobacter cloacae clinical strains; type: cell-based; parameters: Minimum inhibitory concentration: unit: μg/ml; details: microdilution, Muller Hinton broth-cation adjusted, 0.02% BSA, 0.2% acetic acid
Outline: as §1

[7] = tested on: Streptococcus pneumoniae clinical strains; type: cell-based; parameters: Minimum inhibitory concentration: unit: μg/ml; details: microdilution, Muller Hinton broth-cation adjusted, 0.02% BSA, 0.2% acetic acid
Outline: as §1

[8] = tested on: Proteus mirabilis clinical strains; type: cell-based; parameters: Minimum inhibitory concentration: unit: μg/ml; details: microdilution, Muller Hinton broth-cation adjusted, 0.02% BSA, 0.2% acetic acid
Outline: as §1

[9] = tested on: Serratia marcescens clinical strains; type: cell-based; parameters: Minimum inhibitory concentration: unit: μg/ml; details: microdilution, Muller Hinton broth-cation adjusted, 0.02% BSA, 0.2% acetic acid
Outline: as §1

[10] = tested on: Staphylococcus aureus clinical strains; type: cell-based; parameters: Minimum inhibitory concentration: unit: μg/ml; details: microdilution, Muller Hinton broth-cation adjusted, 0.02% BSA, 0.2% acetic acid
Outline: as §1

[11] = tested on: C. glabrata clinical strains; assay: MIC, clinical yeast strains; type: cell-based, Candida glabrata; parameters: unit: µg/ml
Outline: as §1

[12] = tested on: Candida albicans clinical strains; assay: MIC, clinical yeast strains; type: cell-based; parameters: unit: μg/ml
Outline: as §1

Measured: Minimum inhibitory concentration

CC(C)C[C@@H](NC(=O)[C@H](N)CCCNC(=N)N)C(=O)N[C@H](CCCCN)C(=O)N[C@H](Cc1c[nH]c2ccccc12)C(=O)N[C@H](Cc1ccccc1)C(=O)N[C@H](Cc1c[nH]c2ccccc12)C(=O)N[C@H](CC(C)C)C(=O)N[C@H](Cc1ccccc1)C(=O)N[C@H](CCCNC(=N)N)C(=O)N[C@H](CCCCN)C(=O)N[C@H](CCCNC(=N)N)C(=O)O [Chain307D] (H-[dR][dL][dK][dW][dF][dW][dL][dF][dR][dK][dR]-OH)
16: [3]; Pseudomonas aeruginosa clinical strain 1 | [3]; Pseudomonas aeruginosa clinical strain 2 | [3]; Pseudomonas aeruginosa clinical strain 3 | [4]; Klebsiella pneumoniae clinical strain 3 | [4]; Klebsiella pneumoniae clinical strain 4 | [5]; C. parapsilosis clinical yeast strain 1 | [11]; C. glabrata clinical yeast strain 2 | [11]; C. glabrata clinical yeast strain 4 | [12]; Candida albicans clinical yeast strain 1 | [12]; Candida albicans clinical yeast strain 2 | [12]; Candida albicans clinical yeast strain 3 | [12]; Candida albicans clinical yeast strain 4 | [12]; Candida albicans clinical yeast strain 5
8: [3]; Pseudomonas aeruginosa clinical strain 4 | [3]; Pseudomonas aeruginosa clinical strain 5 | [4]; Klebsiella pneumoniae clinical strain 1 | [4]; Klebsiella pneumoniae clinical strain 2 | [5]; C. parapsilosis clinical yeast strain 2 | [5]; C. parapsilosis clinical yeast strain 3 | [5]; C. parapsilosis clinical yeast strain 4 | [6]; Enterobacter cloacae clinical strain 2 | [11]; C. glabrata clinical yeast strain 1 | [11]; C. glabrata clinical yeast strain 3
>128: [8]; Proteus mirabilis clinical strain 1 | [8]; Proteus mirabilis clinical strain 4 | [8]; Proteus mirabilis clinical strain 5 | [9]; Serratia marcescens clinical strain 1 | [9]; Serratia marcescens clinical strain 2 | [9]; Serratia marcescens clinical strain 4 | [9]; Serratia marcescens clinical strain 5
128: [8]; Proteus mirabilis clinical strain 2 | [8]; Proteus mirabilis clinical strain 3 | [9]; Serratia marcescens clinical strain 3
4: [1] | [2]; Escherichia coli clinical strain 1 | [2]; Escherichia coli clinical strain 2 | [2]; Escherichia coli clinical strain 3 | [2]; Escherichia coli clinical strain 5 | [4]; Klebsiella pneumoniae clinical strain 5 | [6]; Enterobacter cloacae clinical strain 1 | [6]; Enterobacter cloacae clinical strain 3 | [6]; Enterobacter cloacae clinical strain 4 | [6]; Enterobacter cloacae clinical strain 5 | [7]; Streptococcus pneumoniae clinical strain 1 | [7]; Streptococcus pneumoniae clinical strain 2 | [7]; Streptococcus pneumoniae clinical strain 3
2: [2]; Escherichia coli clinical strain 4 | [7]; Streptococcus pneumoniae clinical strain 4 | [7]; Streptococcus pneumoniae clinical strain 5 | [10]; Staphylococcus aureus clinical strain 1 | [10]; Staphylococcus aureus clinical strain 2 | [10]; Staphylococcus aureus clinical strain 3 | [10]; Staphylococcus aureus clinical strain 4 | [10]; Staphylococcus aureus clinical strain 5
